Target: Nav 1.7 (Homo sapiens (Human), UniProt Q15858)
Test: in-vitro Nav 1.7 PX (IC50)
Type: cell-based
Conditions: in-vitro Nav 1.7 PX data

Nav 1.7, sequence (Q15858 whole entry): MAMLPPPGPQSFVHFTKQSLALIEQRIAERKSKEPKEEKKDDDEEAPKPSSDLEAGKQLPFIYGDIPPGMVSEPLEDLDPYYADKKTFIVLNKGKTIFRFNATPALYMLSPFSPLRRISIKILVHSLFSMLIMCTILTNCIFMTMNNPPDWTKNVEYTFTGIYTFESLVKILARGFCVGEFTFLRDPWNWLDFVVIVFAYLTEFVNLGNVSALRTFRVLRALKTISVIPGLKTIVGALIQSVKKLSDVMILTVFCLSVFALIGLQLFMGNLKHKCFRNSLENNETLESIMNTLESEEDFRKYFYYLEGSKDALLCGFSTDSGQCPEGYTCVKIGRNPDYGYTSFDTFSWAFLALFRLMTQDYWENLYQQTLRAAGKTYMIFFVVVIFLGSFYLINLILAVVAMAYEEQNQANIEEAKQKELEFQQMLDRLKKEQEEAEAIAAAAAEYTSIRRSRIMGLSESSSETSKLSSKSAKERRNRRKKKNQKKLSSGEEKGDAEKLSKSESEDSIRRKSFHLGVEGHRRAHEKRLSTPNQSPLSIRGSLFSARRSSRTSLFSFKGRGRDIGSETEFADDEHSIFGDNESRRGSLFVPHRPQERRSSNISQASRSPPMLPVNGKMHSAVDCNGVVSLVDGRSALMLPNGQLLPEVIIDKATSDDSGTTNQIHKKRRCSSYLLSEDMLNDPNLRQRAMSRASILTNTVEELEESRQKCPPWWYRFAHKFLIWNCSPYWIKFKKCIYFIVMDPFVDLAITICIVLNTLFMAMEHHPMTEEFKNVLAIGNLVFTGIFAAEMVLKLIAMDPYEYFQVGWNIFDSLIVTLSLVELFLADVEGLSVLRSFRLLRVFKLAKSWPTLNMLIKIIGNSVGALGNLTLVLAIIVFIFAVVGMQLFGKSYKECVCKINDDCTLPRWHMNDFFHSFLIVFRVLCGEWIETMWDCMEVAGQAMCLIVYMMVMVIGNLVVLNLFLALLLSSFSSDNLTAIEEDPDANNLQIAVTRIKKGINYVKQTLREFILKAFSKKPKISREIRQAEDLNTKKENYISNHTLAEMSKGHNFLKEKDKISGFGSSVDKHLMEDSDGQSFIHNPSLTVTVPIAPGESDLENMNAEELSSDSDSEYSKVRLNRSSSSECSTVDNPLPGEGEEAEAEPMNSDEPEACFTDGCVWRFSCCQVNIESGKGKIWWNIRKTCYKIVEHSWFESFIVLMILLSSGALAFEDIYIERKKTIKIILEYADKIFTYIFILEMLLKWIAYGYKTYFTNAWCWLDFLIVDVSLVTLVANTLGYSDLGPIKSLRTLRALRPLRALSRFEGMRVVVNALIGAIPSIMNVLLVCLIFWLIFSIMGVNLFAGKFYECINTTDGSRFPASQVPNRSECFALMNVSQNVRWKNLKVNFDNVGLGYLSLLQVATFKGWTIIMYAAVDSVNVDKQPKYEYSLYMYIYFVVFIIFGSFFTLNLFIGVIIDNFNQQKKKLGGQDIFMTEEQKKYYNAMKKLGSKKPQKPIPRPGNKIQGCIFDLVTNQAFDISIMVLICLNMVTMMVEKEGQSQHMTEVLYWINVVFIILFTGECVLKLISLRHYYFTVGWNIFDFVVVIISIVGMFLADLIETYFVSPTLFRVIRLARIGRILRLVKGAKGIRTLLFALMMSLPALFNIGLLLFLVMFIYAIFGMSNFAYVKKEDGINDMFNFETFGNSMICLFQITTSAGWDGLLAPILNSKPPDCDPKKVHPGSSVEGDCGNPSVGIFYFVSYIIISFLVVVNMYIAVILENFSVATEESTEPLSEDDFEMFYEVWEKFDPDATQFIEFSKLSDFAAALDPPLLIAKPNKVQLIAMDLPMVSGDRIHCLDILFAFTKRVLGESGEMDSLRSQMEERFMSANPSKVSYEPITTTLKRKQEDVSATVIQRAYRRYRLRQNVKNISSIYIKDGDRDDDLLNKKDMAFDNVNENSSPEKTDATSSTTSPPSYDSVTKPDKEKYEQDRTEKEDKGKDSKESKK

Row | IC50 | Compound
1 | 274 nM | COc1cc(-c2ccc(F)cc2)c(F)cc1-n1c(=O)ccc2cc(S(=O)(=O)Nc3ccnc(C)n3)ccc21 [Example 773, 1-(2,4′-difluoro-5-methoxy-4-biphenylyl)-N-(2-methyl-4-pyrimidinyl)-2-oxo-1,2-dihydro-6-quinolinesulfonamide]
2 | 48 nM | COc1cc(-c2cc(Cl)cnc2OC)c(F)cc1-n1c(=O)ccc2cc(S(=O)(=O)Nc3ncc(F)cn3)ccc21 [Example 774, 1-(4-(5-chloro-2-methoxy-3-pyridinyl)-5-fluoro-2-methoxyphenyl)-N-(5-fluoro-2-pyrimidinyl)-2-oxo-1,2-dihydro-6-quinolinesulfonamide]
3 | 47 nM | COc1cc(-c2cc(Cl)cnc2OC)c(F)cc1-n1c(=O)ccc2cc(S(=O)(=O)Nc3cccnn3)ccc21 [Example 775, 1-(4-(5-chloro-2-methoxy-3-pyridinyl)-5-fluoro-2-methoxyphenyl)-2-oxo-N-3-pyridazinyl-1,2-dihydro-6-quinolinesulfonamide]
4 | 54 nM | COc1cc(-c2cc(Cl)cnc2OC)c(F)cc1-n1c(=O)ccc2cc(S(=O)(=O)Nc3ncco3)ccc21 [Example 776, 1-(4-(5-chloro-2-methoxy-3-pyridinyl)-5-fluoro-2-methoxyphenyl)-N-1,3-oxazol-2-yl-2-oxo-1,2-dihydro-6-quinolinesulfonamide]
5 | 103 nM | COc1cc(-c2cc(Cl)cnc2OC)c(F)cc1-n1c(=O)ccc2cc(S(=O)(=O)Nc3cc(C)ncn3)ccc21 [Example 777, 1-(4-(5-chloro-2-methoxy-3-pyridinyl)-5-fluoro-2-methoxyphenyl)-N-(6-methyl-4-pyrimidinyl)-2-oxo-1,2-dihydro-6-quinolinesulfonamide]
6 | 111 nM | COc1cc(-c2cc(Cl)cnc2OC)c(F)cc1-n1c(=O)ccc2cc(S(=O)(=O)Nc3ccnc(C)n3)ccc21 [Example 778, 1-(4-(5-chloro-2-methoxy-3-pyridinyl)-5-fluoro-2-methoxyphenyl)-N-(2-methyl-4-pyrimidinyl)-2-oxo-1,2-dihydro-6-quinolinesulfonamide]
7 | 26 nM | COc1cc(-c2cccc(OC(C)C)c2)ccc1-n1c(=O)ccc2cc(S(=O)(=O)Nc3ccon3)ccc21 [Example 780, N-3-isoxazolyl-1-(3-methoxy-3′-(1-methylethoxy)-4-biphenylyl)-2-oxo-1,2-dihydro-6-quinolinesulfonamide]
8 | 10 nM | COc1cc(-c2cccc(OC(F)(F)F)c2)ccc1-n1c(=O)ccc2cc(S(=O)(=O)Nc3ccon3)ccc21 [Example 781, N-3-isoxazolyl-1-(3-methoxy-3′-(trifluoromethoxy)-4-biphenylyl)-2-oxo-1,2-dihydro-6-quinolinesulfonamide]
9 | 87 nM | COc1cc(-c2cccc(OC)c2Cl)ccc1-n1c(=O)ccc2cc(S(=O)(=O)Nc3ccon3)ccc21 [Example 782, 1-(2′-chloro-3,3′-dimethoxy-4-biphenylyl)-N-3-isoxazolyl-2-oxo-1,2-dihydro-6-quinolinesulfonamide]
10 | 9 nM | COc1cc(-c2cccc(C(C)C)c2)ccc1-n1c(=O)ccc2cc(S(=O)(=O)Nc3ccon3)ccc21 [Example 783, N-3-isoxazolyl-1-(3-methoxy-3′-(1-methylethyl)-4-biphenylyl)-2-oxo-1,2-dihydro-6-quinolinesulfonamide]
11 | 20 nM | COc1cc(C)cc(-c2ccc(-n3c(=O)ccc4cc(S(=O)(=O)Nc5ccon5)ccc43)c(OC)c2)c1 [Example 784, 1-(3,3′-dimethoxy-5′-methyl-4-biphenylyl)-N-3-isoxazolyl-2-oxo-1,2-dihydro-6-quinolinesulfonamide]
12 | 66 nM | COc1cc(-c2cccc(OC)c2F)ccc1-n1c(=O)ccc2cc(S(=O)(=O)Nc3ccon3)ccc21 [Example 785, 1-(2′-fluoro-3,3′-dimethoxy-4-biphenylyl)-N-3-isoxazolyl-2-oxo-1,2-dihydro-6-quinolinesulfonamide]
13 | 48 nM | COc1cc(-c2cccc(OC(F)F)c2)ccc1-n1c(=O)ccc2cc(S(=O)(=O)Nc3ccon3)ccc21 [Example 786, 1-(3′-(difluoromethoxy)-3-methoxy-4-biphenylyl)-N-3-isoxazolyl-2-oxo-1,2-dihydro-6-quinolinesulfonamide]
14 | 52 nM | COc1cc(-c2cccc(OC)c2C)ccc1-n1c(=O)ccc2cc(S(=O)(=O)Nc3ccon3)ccc21 [Example 787, 1-(3,3′-dimethoxy-2′-methyl-4-biphenylyl)-N-3-isoxazolyl-2-oxo-1,2-dihydro-6-quinolinesulfonamide]
15 | 6 nM | COc1cc(-c2cccc(C3CC3)c2)ccc1-n1c(=O)ccc2cc(S(=O)(=O)Nc3ccon3)ccc21 [Example 788, 1-(3′-cyclopropyl-3-methoxy-4-biphenylyl)-N-3-isoxazolyl-2-oxo-1,2-dihydro-6-quinolinesulfonamide]
16 | 89 nM | COc1cc(-c2cccc3c2OCC3)ccc1-n1c(=O)ccc2cc(S(=O)(=O)Nc3ccon3)ccc21 [Example 789, 1-(4-(2,3-dihydro-1-benzofuran-7-yl)-2-methoxyphenyl)-N-3-isoxazolyl-2-oxo-1,2-dihydro-6-quinolinesulfonamide]

Row | IC50 | Compound
17 | 5 nM | COc1cc(-c2cccc(C3CC3)c2)c(F)cc1-n1c(=O)ccc2cc(S(=O)(=O)Nc3ccon3)ccc21 [Example 790, 1-(3′-cyclopropyl-2-fluoro-5-methoxy-4-biphenylyl)-N-3-isoxazolyl-2-oxo-1,2-dihydro-6-quinolinesulfonamide]
18 | 9 nM | CCc1cccc(-c2cc(OC)c(-n3c(=O)ccc4cc(S(=O)(=O)Nc5ccon5)ccc43)cc2F)c1 [Example 791, 1-(3′-ethyl-2-fluoro-5-methoxy-4-biphenylyl)-N-3-isoxazolyl-2-oxo-1,2-dihydro-6-quinolinesulfonamide]
19 | 38 nM | COc1cc(-c2cccc(C)c2OC)c(F)cc1-n1c(=O)ccc2cc(S(=O)(=O)Nc3ccon3)ccc21 [Example 792, 1-(2-fluoro-2′,5-dimethoxy-3′-methyl-4-biphenylyl)-N-3-isoxazolyl-2-oxo-1,2-dihydro-6-quinolinesulfonamide]
20 | 48 nM | COc1cc(C)ccc1-c1cc(OC)c(-n2c(=O)ccc3cc(S(=O)(=O)Nc4ccon4)ccc32)cc1F [Example 793, 1-(2-fluoro-2′,5-dimethoxy-4′-methyl-4-biphenylyl)-N-3-isoxazolyl-2-oxo-1,2-dihydro-6-quinolinesulfonamide]
21 | 96 nM | COc1cc(-c2cccc(C(F)(F)F)n2)c(F)cc1-n1c(=O)ccc2cc(S(=O)(=O)Nc3ccon3)ccc21 [Example 794, 1-(5-fluoro-2-methoxy-4-(6-(trifluoromethyl)-2-pyridinyl)phenyl)-N-3-isoxazolyl-2-oxo-1,2-dihydro-6-quinolinesulfonamide]
22 | 31 nM | COc1cc(-c2ccc(C(F)(F)F)cc2)c(F)cc1-n1c(=O)ccc2cc(S(=O)(=O)Nc3cccnn3)ccc21 [Example 795, 1-(2-fluoro-5-methoxy-4′-(trifluoromethyl)-4-biphenylyl)-2-oxo-N-3-pyridazinyl-1,2-dihydro-6-quinolinesulfonamide]
23 | 33 nM | COc1cc(-c2ccc(C(F)(F)F)cc2)c(F)cc1-n1c(=O)ccc2cc(S(=O)(=O)Nc3ncc(F)cn3)ccc21 [Example 796, 1-(2-fluoro-5-methoxy-4′-(trifluoromethyl)-4-biphenylyl)-N-(5-fluoro-2-pyrimidinyl)-2-oxo-1,2-dihydro-6-quinolinesulfonamide]
24 | 43 nM | COc1cc(-c2ccc(C(F)(F)F)cc2)c(F)cc1-n1c(=O)ccc2cc(S(=O)(=O)Nc3ncccn3)ccc21 [Example 797, 1-(2-fluoro-5-methoxy-4′-(trifluoromethyl)-4-biphenylyl)-2-oxo-N-2-pyrimidinyl-1,2-dihydro-6-quinolinesulfonamide]
25 | 49 nM | COc1cc(-c2ccc(C(F)(F)F)cc2)c(F)cc1-n1c(=O)ccc2cc(S(=O)(=O)Nc3cc(C)ncn3)ccc21 [Example 798, 1-(2-fluoro-5-methoxy-4′-(trifluoromethyl)-4-biphenylyl)-N-(6-methyl-4-pyrimidinyl)-2-oxo-1,2-dihydro-6-quinolinesulfonamide]
26 | 59 nM | COc1cc(-c2ccc(C(F)(F)F)cc2)c(F)cc1-n1c(=O)ccc2cc(S(=O)(=O)Nc3ccnc(C)n3)ccc21 [Example 799, 1-(2-fluoro-5-methoxy-4′-(trifluoromethyl)-4-biphenylyl)-N-(2-methyl-4-pyrimidinyl)-2-oxo-1,2-dihydro-6-quinolinesulfonamide]
27 | 253 nM | COc1cc(-c2ccc(Cl)cn2)c(F)cc1-n1c(=O)ccc2cc(S(=O)(=O)Nc3ccon3)ccc21 [Example 800, 1-(4-(5-chloro-2-pyridinyl)-5-fluoro-2-methoxyphenyl)-N-3-isoxazolyl-2-oxo-1,2-dihydro-6-quinolinesulfonamide]
28 | 21 nM | COc1cc(-c2cccc(C(F)(F)F)c2)c(F)cc1-n1c(=O)ccc2cc(S(=O)(=O)Nc3ncc(F)cn3)ccc21 [Example 802, 1-(2-fluoro-5-methoxy-3′-(trifluoromethyl)-4-biphenylyl)-N-(5-fluoro-2-pyrimidinyl)-2-oxo-1,2-dihydro-6-quinolinesulfonamide]
29 | 14 nM | COc1cc(-c2cccc(C(F)(F)F)c2)c(F)cc1-n1c(=O)ccc2cc(S(=O)(=O)Nc3ccnc(C)n3)ccc21 [Example 804, 1-(2-fluoro-5-methoxy-3′-(trifluoromethyl)-4-biphenylyl)-N-(2-methyl-4-pyrimidinyl)-2-oxo-1,2-dihydro-6-quinolinesulfonamide]
30 | 70 nM | COc1cccc(-c2cc(OC)c(-n3c(=O)ccc4cc(S(=O)(=O)Nc5ccon5)ccc43)cc2F)n1 [Example 805, 1-(5-fluoro-2-methoxy-4-(6-methoxy-2-pyridinyl)phenyl)-N-3-isoxazolyl-2-oxo-1,2-dihydro-6-quinolinesulfonamide]
31 | 28 nM | COc1cc(-c2cccc(C(F)(F)F)c2)c(F)cc1-n1c(=O)ccc2cc(S(=O)(=O)Nc3ncco3)ccc21 [Example 806, 1-(2-fluoro-5-methoxy-3′-(trifluoromethyl)-4-biphenylyl)-N-1,3-oxazol-2-yl-2-oxo-1,2-dihydro-6-quinolinesulfonamide]
32 | 3070 nM | COc1ccnc(-c2cc(OC)c(-n3c(=O)ccc4cc(S(=O)(=O)Nc5ccon5)ccc43)cc2F)n1 [Example 808, 1-(5-fluoro-2-methoxy-4-(4-methoxy-2-pyrimidinyl)phenyl)-N-3-isoxazolyl-2-oxo-1,2-dihydro-6-quinolinesulfonamide]

From patent US9212182B2, “Bicyclic sulfonamide compounds as sodium channel inhibitors” (AMGEN INC., priority 2013, dated 2015)
